Key:
[1] = system: BRAPP (broadleaf signalgrass); experiment: Pre-emergence herbicidal activity, warm season; format: in vivo, Brachiaria platyphylla; conditions: GR80 = lowest tested rate (300, 100, 30, 10 g/ha) with 80% or greater inhibition; approx. 14 days after treating; 30/21° C.
How it was run: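 GR80 values derive from percent inhibition relative to untreated plants, read roughly 14 days after sowing and pre-emergence soil-surface treatment (compound in 50:50 acetone/water; rates typically 10, 30, 100, 300 g/ha). Warm-season weeds grew at 30/21° C day/night, cool-season ones at 18/13° C; an asterisk marks activity without reaching 80% at the highest rate.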

AVEFA (wild oat) = experiment: Pre-plant incorporated (PPI) herbicidal activity, cool season; format: in vivo, Avena fatua
Protocol: (§1) In another set of tests, the pre-plant incorporated (PPI) activity of compounds of this invention was evaluated on the same species as for the pre-emergence tests described above. In the PPI tests the following procedure, designed to simulate PPI application, was used.
(§2) A pre-prepared topsoil mixture (described above) was placed in a pot and compacted to a depth of 1.0 to 1.25 cm from the top of the pot. Seeds of each of several monocotyledonous and dicotyledonous annual plant species were placed on top of the soil. A sufficient quantity of soil to cover the seeds and level fill the pot was weighed into an open container. A known amount of the test compound was dissolved or suspended in an organic solvent and applied by spraying to this cover soil. The cover soil was thoroughly mixed to distribute the test compound throughout the cover soil, and was then applied as a cover layer over the seeds. Untreated soil was used as a cover layer for control pots. After treatment the plants were placed in a greenhouse where they received 0.64 cm of overhead irrigation. All subsequent watering consisted of a light overhead mist and/or subirrigation as needed for germination and growth. Tables 9 and 10 below relate to warm season plant species which were placed after pre-emergence treatment in a greenhouse with a 30/21° C. day/night temperature regime. Tables 11 and 12 below relates to cool season plant species placed after pre-emergence treatment in a greenhouse or growth chamber with an 18/13° C. day/night temperature regime. Only the compounds of Examples 1, 6, 8, 11, 13 and 15-20 were included in PPI tests.
(§3) Approximately 14 days after planting and treating, the plants were observed and herbicidal efficacy recorded as percent inhibition by comparison with untreated plants.

BROTE (downy brome) = experiment: as above; format: in vivo, Bromus tectorum
Protocol: as §1, §2, §3

LOLMG (annual ryegrass) = experiment: as above; format: in vivo, Lolium multiflorum
Protocol: as §1, §2, §3

oilseed rape (BRSNS) = experiment: Selectivity test, PPI, cool season crop; format: in vivo, Brassica napus; conditions: Brassica napus, PPI application, read-out: Percent inhibition BRSNS
Protocol: as §2, §3
Additional pre-emergence and PPI tests were conducted by the procedures described above, on warm and cool season weed species in the presence of crop species, to assess herbicidal selectivity. Crop species included in warm season tests were corn (Zea mays, ZEAMX), rice (Oryza sativa, ORYSA) and soybean (Glycine max, GLYMX). Crop species included in cool season tests were wheat (Triticum aestivum, TRZAW), barley (Hordeunm vulgare, HORVX) and oilseed rape (Brassica napus, BRSNS).
Tables 15 and 16 relate to pre-emergence and PPI tests respectively on warm season species. Table 17 relates to pre-emergence tests on cool season species.

[2] = pre-plant incorporated, lowest tested rate with 80% or greater inhibition, about 14 days

In the case of `C=CCC(F)(F)S(=O)(=O)c1ncn(C(=O)N(CC)CC)n1` [Example 17, 1-(N,N-diethylcarbamoyl)-3-[(1,1-difluoro-3-butenyl)sulfonyl]-1,2,4-triazole], the “Pre-emergence activity (GR80) BRAPP” value [1] is reported as 300 g/ha, the inhibition at 10 g/ha (AVEFA (wild oat); Avena fatua, weed, PPI application, 10 g/ha, read-out: Percent inhibition AVEFA) is reported as 0% and the inhibition at 30 g/ha (AVEFA (wild oat); Avena fatua, weed, PPI application, 30 g/ha, read-out: Percent inhibition AVEFA) is reported as 15%. It also gave an inhibition at 100 g/ha (AVEFA (wild oat); Avena fatua, weed, PPI application, 100 g/ha, read-out: Percent inhibition AVEFA) of 50%, an inhibition at 300 g/ha (AVEFA (wild oat); Avena fatua, weed, PPI application, 300 g/ha, read-out: Percent inhibition AVEFA) of 75% and an inhibition at 900 g/ha (AVEFA (wild oat); Avena fatua, weed, PPI application, 900 g/ha, read-out: Percent inhibition AVEFA) of 100%. The “PPI activity GR80, AVEFA” value (AVEFA (wild oat); [2]) was 100 g/ha, the inhibition at 10 g/ha (BROTE (downy brome); Bromus tectorum, weed, PPI application, 10 g/ha, read-out: Percent inhibition BROTE) was 0% and the inhibition at 30 g/ha (BROTE (downy brome); Bromus tectorum, weed, PPI application, 30 g/ha, read-out: Percent inhibition BROTE) was 0%. For the same molecule, the inhibition at 100 g/ha (BROTE (downy brome); Bromus tectorum, weed, PPI application, 100 g/ha, read-out: Percent inhibition BROTE) was 20%, the inhibition at 300 g/ha (BROTE (downy brome); Bromus tectorum, weed, PPI application, 300 g/ha, read-out: Percent inhibition BROTE) was 30% and the inhibition at 900 g/ha (BROTE (downy brome); Bromus tectorum, weed, PPI application, 900 g/ha, read-out: Percent inhibition BROTE) was 95%. The “PPI activity GR80, BROTE” value (BROTE (downy brome); [2]) was 100 g/ha, the inhibition at 10 g/ha (LOLMG (annual ryegrass); Lolium multiflorum, weed, PPI application, 10 g/ha, read-out: Percent inhibition LOLMG) was 45% and the inhibition at 30 g/ha (LOLMG (annual ryegrass); Lolium multiflorum, weed, PPI application, 30 g/ha, read-out: Percent inhibition LOLMG) was 60%. It also gave an inhibition at 100 g/ha (LOLMG (annual ryegrass); Lolium multiflorum, weed, PPI application, 100 g/ha, read-out: Percent inhibition LOLMG) of 95%, an inhibition at 300 g/ha (LOLMG (annual ryegrass); Lolium multiflorum, weed, PPI application, 300 g/ha, read-out: Percent inhibition LOLMG) of 100% and an inhibition at 900 g/ha (LOLMG (annual ryegrass); Lolium multiflorum, weed, PPI application, 900 g/ha, read-out: Percent inhibition LOLMG) of 100%. The “PPI activity GR80, LOLMG” value (LOLMG (annual ryegrass); [2]) was 100 g/ha, the inhibition at 10 g/ha (oilseed rape (BRSNS); 10 g/ha) was 0% and the inhibition at 30 g/ha (oilseed rape (BRSNS); 30 g/ha) was 0%. The inhibition at 100 g/ha (oilseed rape (BRSNS); 100 g/ha) was 0%, the inhibition at 300 g/ha (oilseed rape (BRSNS); 300 g/ha) was 60% and the inhibition at 900 g/ha (oilseed rape (BRSNS); 900 g/ha) was 95%.

From patent US6461997B1, “Triazole sulfones having herbicidal activity” (Monsanto Technology LLC, priority 1999, dated 2002)
